Experimental data: patent US20040102423A1, “Spironolactone and angiotensin II antagonist combination therapy for treatment of congestive heart failure” (G.D. Searle & Co., priority 1995, published 2004)
Read-outs that look alike come from different tables or passages of the source.

Experiments:
[1] = target: angiotensin II AT1 receptor; assay: Assay A: Angiotensin II binding activity, rat uterine membrane preparation, 125I-AII displacement
Protocol: Assay A: Antiotensin II Binding Activity
Compounds of the invention were tested for ability to bind to the smooth muscle angiotensin II receptor using a rat uterine membrane preparation. […] Rat uterine membranes were prepared from fresh tissue. All procedures were carried out at 4° C. Uteri were stripped of fat and homogenized in phosphate-buffered saline at pH 7.4 containing 5 mM EDTA. The homogenate was centrifuged at 1500×g for 20 min., and the supernatant was recentrifuged at 100,000×g for 60 min. The pellet was resuspended in buffer consisting of 2 mM EDTA and 50 mM Tris-HCl (pH 7.5) to a final protein concentration of 4 mg/ml. […] The reaction was initiated by the addition of membrane protein and the mixture was incubated at 25° C. for 60 min. The incubation was terminated with ice-cold 50 mM Tris-HCl (pH 7.5) and the mixture was filtered to separate membrane-bound labelled peptide from the free ligand. The incubation tube and filter were washed with ice-cold buffer. Filters were assayed for radioactivity in a Micromedic gamma counter. Nonspecific binding was defined as binding in the presence of 10 μM of unlabelled AII. Specific binding was calculated as total binding minus nonspecific binding. […] Binding data were analyzed by a nonlinear least-squares curve fitting program.

[2] = test system: pressor response to AII; assay: Assay C: In vivo intragastric pressor assay response for AII antagonists; set-up: species or system Sprague-Dawley rats; settings: for inhibition in vivo at 30 mg/kg: read-out: Assay C Inhibition
[3] = in vivo pressor response, 30 mg/kg intraduodenally
[4] = Rattus norvegicus, intraduodenal, in vivo pressor response, 30 mg/kg intraduodenally
[5] = Rattus norvegicus, po, in vivo pressor response, 3 mg/kg intragastrically
[6] = in vivo pressor response, 3 mg/kg intragastrically

Structure (SMILES)	IC50 [1]	inhibition in vivo at 3 mg/kg [2, 5]	Assay C Duration [2, 6]	other results
COC(=O)[C@@H]1CC2=CC(=O)CC[C@]2(C)C23O[C@@H]2C[C@@]2(C)[C@@H](CC[C@@]2(O)CCC(=O)O)[C@H]13.[K+] (some centres unmarked) [Compound 5]	200 nM			inhibition in vivo at 30 mg/kg ([2]; Rattus norvegicus, intraduodenal): 38%; Assay C Duration [2, 3]: 20 to 30 min
C[C@]12CCC(=O)C=C1C1CC1[C@H]1[C@@H]3CC[C@@]4(CCC(=O)O4)[C@@]3(C)CC3O[C@]312 (some centres unmarked) [Compound 9]	700 nM			inhibition in vivo at 30 mg/kg [2, 4]: 80%; inhibition in vivo at 100 mg/kg ([2]; Rattus norvegicus, intraduodenal, in vivo pressor response, 100 mg/kg intraduodenally): 100%; Assay C Duration [2, 3]: 75 min; Assay C Duration ([2]; in vivo pressor response, 100 mg/kg intraduodenally): 130 min
CCOC(=O)[C@@H]1CC2=CC(=O)CC[C@]2(C)C23O[C@@H]2C[C@@]2(C)[C@@H](CC[C@@]24CCC(=O)O4)[C@H]13 (some centres unmarked) [Compound 10]	4.9 nM			inhibition in vivo at 3 mg/kg ([2]; Rattus norvegicus, intraduodenal, in vivo pressor response, 3 mg/kg intraduodenally): 86%; inhibition in vivo at 30 mg/kg [2, 4]: 100%; Assay C Duration ([2]; in vivo pressor response, 3 mg/kg intraduodenally): 100 min; Assay C Duration [2, 3]: 240 min
CCCCc1nc2c(O)nnc(CCC)c2n1Cc1ccc(-c2ccccc2-c2nnn[nH]2)cc1 [Compound 125]		35%	>240 min	
CCCCc1nc(CCCC)n(Cc2ccc(-n3ccc(-c4nnn[nH]4)c3)cc2)n1 [Compound 153]	13 nM	25%	>180 min	
CCCCn1nc(C(O)CCC)nc1Cc1ccc(-c2ccccc2-c2nnn[nH]2)nc1 (centres unmarked) [Compound 170]	26 nM	40%	>180 min	
CCCCn1nc(C(=O)CCC)nc1Cc1ccc(-c2ccccc2-c2nnn[nH]2)nc1 [Compound 171]	28 nM	0%	0 min	
CCn1nc(C(C)(F)F)nc1Cc1ccc(-c2ccccc2-c2nnn[nH]2)nc1 [Compound 175]	27 nM	0%	0 min	
CCCCn1nc(C(C)(F)F)nc1Cc1ccc(-c2ccccc2-c2nnn[nH]2)nc1 [Compound 177]	26 nM	15%	180 min	
CCCn1nc(C(F)(F)CCC)nc1Cc1ccc(-c2ccccc2-c2nnn[nH]2)nc1 [Compound 180]	20 nM	25%	180 min	
CCCCn1nc(C(F)(F)CCC)nc1Cc1ccc(-c2ccccc2-c2nnn[nH]2)nc1 [Compound 181]	21 nM	20%	180 min	
CCCCn1nc(C(OC)OC)nc1Cc1ccc(-c2ccccc2-c2nnn[nH]2)nc1 [Compound 186]	38 nM	25%	18 min	
CCCCn1nc(C(C)(OC)OC)nc1Cc1ccc(-c2ccccc2-c2nnn[nH]2)nc1 [Compound 193]	11 nM	10%	180 min	
CCCCn1cc(CCC(C)C)n(Cc2ccc(-c3ccccc3-c3nnn[nH]3)nc2)c1=O [Compound 200]	20 nM	45%	>180 min	
CCCCn1cc(CCC2CC2)n(Cc2ccc(-c3ccccc3-c3nnn[nH]3)nc2)c1=O [Compound 204]	16 nM	75%	>180 min	
CCCCc1cn(CC(C)C)c(=O)n1Cc1ccc(-c2ccccc2-c2nnn[nH]2)nc1 [Compound 208]	22 nM	50%	>180 min	
CCCCc1cn(C(C)(C)C)c(=O)n1Cc1ccc(-c2ccccc2-c2nnn[nH]2)nc1 [Compound 212]	23 nM	15%	180 min	
CCCCc1cn(CCC2CC2)c(=O)n1Cc1ccc(-c2ccccc2-c2nnn[nH]2)nc1 [Compound 217]	9.4 nM	65%	>180 min	

Structure (SMILES)	IC50 [1]	inhibition in vivo at 3 mg/kg [2, 5]	Assay C Duration [2, 6]	other results
CCCCc1cn(CCc2cccs2)c(=O)n1Cc1ccc(-c2ccccc2-c2nnn[nH]2)nc1 [Compound 220]	7 nM	75%	120 min	
CCCCc1cn(CCc2ccccc2)c(=O)n1Cc1ccc(-c2ccccc2-c2nnn[nH]2)nc1 [Compound 221]	4.8 nM	25%	>180 min	
CCCCc1cn(CCC2=CCCC2)c(=O)n1Cc1ccc(-c2ccccc2-c2nnn[nH]2)nc1 [Compound 223]	14 nM	20%	>180 min	
CCCCc1cn(-c2ccccc2C)c(=O)n1Cc1ccc(-c2ccccc2-c2nnn[nH]2)nc1 [Compound 228]	4.5 nM	80%	>180 min	
CCCCc1cn(-c2ccccc2OC)c(=O)n1Cc1ccc(-c2ccccc2-c2nnn[nH]2)nc1 [Compound 229]	19 nM	40%	>180 min	
CCCCc1cn(-c2ccccc2C(C)C)c(=O)n1Cc1ccc(-c2ccccc2-c2nnn[nH]2)nc1 [Compound 230]	2.6 nM	25%	>180 min	
CCCCc1cn(-c2c(F)cccc2F)c(=O)n1Cc1ccc(-c2ccccc2-c2nnn[nH]2)nc1 [Compound 231]	3.6 nM	75%	>180 min	
CCCCc1cn(CCCC)c(=O)n1Cc1ccc(-c2ccccc2-c2nnn[nH]2)cn1 [Compound 234]	5 nM	20%		
CCCCc1cn(CCCC)c(=O)n1Cc1ccc(-c2cnccc2-c2nnn[nH]2)cc1 [Compound 236]	4.9 nM	70%	>180 min	
CCCCc1cn(CCCC)c(=O)n1Cc1ccc(-c2cccnc2-c2nnn[nH]2)cc1 [Compound 238]	1.7 nM	15%	>180 min	
CCCCc1cn(-c2c(OC)cccc2OC)c(=O)n1Cc1ccc(-c2ccccc2-c2nnn[nH]2)nc1 [Compound 241]	6.9 nM	40%	>180 min	
CCCCc1cn(-c2cccn2CC)c(=O)n1Cc1ccc(-c2ccccc2-c2nnn[nH]2)nc1 [Compound 249]	4.4 nM	20%	>180 min	
CCCCc1nc(CCCC)n(Cc2ccc(-c3ccccc3-c3nnn[nH]3)cn2)n1 [Compound 250]	43 nM	0%		
CCCCc1nc(CCCC)n(Cc2ccc(-c3ncccc3-c3nnn[nH]3)cc2)n1 [Compound 256]	4.1 nM	30%	>180 min	
CCCCc1nc(C(=O)N(C)C(C)(C)C)n(Cc2ccc(-c3ccccc3-c3nnn[nH]3)nc2)n1 [Compound 267]	25 nM	25%	>180 min	
CCCCc1nc(C(=O)NC)nn1Cc1ccc(-c2ccccc2-c2nnn[nH]2)nc1 [Compound 268]	520 nM	0%		
CCCCc1nc(-c2ccccc2)n(Cc2ccc(-c3ccccc3-c3nnn[nH]3)nc2)n1 [Compound 271]	14 nM	20%		
CCCCc1nc(-c2ccccc2C)nn1Cc1ccc(-c2ccccc2-c2nnn[nH]2)nc1 [Compound 272]	97 nM	70%	>180 min	
